For data set [1], the target named is T1, c-Met (cytoplasmic domain) (Homo sapiens, UniProt P08581).
T1 construct: Reactions were initiated with 30 ng/mL c-Met (cytoplasmic domain, Invitrogen Corporation #PV3143); purchased Invitrogen Corporation PV3143
Description: c-Met Kinase Assay (ELISA/TRF, PLC-γ substrate). The class given is biochemical. Conditions: 3 μM ATP (Km level); read-out: c-Met Kinase Inhibition (IC50). Put shortly: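 Readout is TRF of europium anti-phosphotyrosine (PT66) bound to GST–PLC-γ substrate coated at 10 μg/mL, after a 15 min, 37 °C reaction started with 30 ng/mL c-Met cytoplasmic domain. Percent inhibition plotted against log compound concentration and fitted (variable slope) for IC50.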
A general note: ELISA stands for enzyme-linked immunosorbent assay.

For data set [2], the target named is baculovirus-expressed ALK (Homo sapiens, UniProt Q9UM73). Nature of the data set: ALK Kinase Assay (ELISA/TRF, PLC-γ substrate). Note: 1 µM ATP (Km level). In kind it is biochemical. The conditions noted are these: read-out: ALK Kinase Inhibition (IC50). The method in brief: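 Read-out: TRF of europium-labeled anti-phosphotyrosine antibody bound to phosphorylated GST–PLC-γ coated at 10 μg/mL. Kinase step used 30 ng/ml ALK, 37° C, 15 minutes. IC50 values fitted by nonlinear sigmoidal dose-response (variable slope).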

A further data set deals with T2, NPM-ALK (Homo sapiens, UniProt Q9UM73).
T2 construct: a fusion protein consisting of nucleophosmin (NMP) and the intracellular domain of ALK; the other entry of the earlier key: NPM1 (P06748, Nucleophosmin)
Nature of the data set: ALK Cellular Assay (phospho-NPM-ALK immunoblot / ALK tyrosine phosphorylation ELISA). Conditions: for inhibition at 1 µM: NPM-ALK, 1 μM compound, read-out: ALK Cellular Activity Inhibition Score at 1 μM. The class given is cell-based. The protocol: Immunoblotting of phospho-NPM-ALK and total NPM-ALK from cell lysates was carried out according to the protocols provided by the antibody suppliers. In brief, after treatment of Example compounds, cells were lysed in Frak lysis buffer [10 mM Tris, pH 7.5, 1% Triton X-100, 50 mM sodium chloride, 20 mM sodium fluoride, 2 mM sodium pyrophosphate, 0.1% BSA, plus freshly prepared 1 mM activated sodium vanadate, 1 mM dithiothreitol (#165680050, ARCOS Organics, Geel, Belgium), and 1 mM PMSF (#837091, Boehringer Mannheim Biochemicals, Indianapolis, Ind.), protease inhibitors cocktail III (#539134-1Set, Calbiochem, 1:100 dilution)]. After brief sonication, the lysates were cleared by centrifugation, mixed with sample buffer and subjected to SDS-PAGE. Following transfer to membranes, the membranes were blotted with either rabbit phospho-NPM-ALK(Y664) (Cat^#3341) or ALK antibody (Cat^#3342) from Cell Signaling Technology (Beverly, Mass.), and then the HRP-conjugated goat anti-rabbit antibodies (Santa Cruz, Calif.) after washed in TBS/0.2% Tween-20. The protein bands were visualized with ECL Western Blotting detection reagents (RPN2106, Amersham Biosciences, Buckinghamshire, UK) and quantitated with gel-pro analyzer 3.1 software.
To measure ALK tyrosine phosphorylation in cells with an ELISA assay, fluoronunc plates (Cat^#437796, Nalge Nunc, Rochester, N.Y.) were pre-coated with goat anti-mouse IgG, and incubated with the capture mouse ALK antibody (Cat^#35-4300, Zymed, Seattle, Wash.) diluted 1:1000 in Superblock (Pierce, Rockford, Ill.). Following blocking, cell lysates were added to plates and incubated overnight at 4° C. Plates were incubated with the detecting antibody, anti-phospho-ALK (Y664) (Cell Signaling Technology), diluted at 1:2000, followed by incubation with goat anti-rabbit-IgG alkaline phosphatase to amplify the detection. Wells were exposed to the fluorogenic substrate 4-MeUP (#3368-04-5, Calbiochem) and the signal quantified using a CytoFluor® (series 4000) Fluorescence Multi-Well Plate Reader (Applied Biosystems, Foster City, Calif.).

Drawing on patent US7601716B2, “Pyridopyrazines and derivatives thereof as ALK and c-Met inhibitors” (Cephalon, Inc., priority 2006, dated 2009), this text covers IC50, inhibition and melting point for 18 molecules.

Counter-ions that a name gives are not always drawn.

One may read the IC50 as the point on the concentration scale where inhibition reaches its midpoint. In general, inhibition refers to the percentage by which the read-out fell short of the control. By melting point is commonly meant the temperature of the solid-liquid transition.

T2 sequence (Q9UM73 with tags, fused parts or gaps): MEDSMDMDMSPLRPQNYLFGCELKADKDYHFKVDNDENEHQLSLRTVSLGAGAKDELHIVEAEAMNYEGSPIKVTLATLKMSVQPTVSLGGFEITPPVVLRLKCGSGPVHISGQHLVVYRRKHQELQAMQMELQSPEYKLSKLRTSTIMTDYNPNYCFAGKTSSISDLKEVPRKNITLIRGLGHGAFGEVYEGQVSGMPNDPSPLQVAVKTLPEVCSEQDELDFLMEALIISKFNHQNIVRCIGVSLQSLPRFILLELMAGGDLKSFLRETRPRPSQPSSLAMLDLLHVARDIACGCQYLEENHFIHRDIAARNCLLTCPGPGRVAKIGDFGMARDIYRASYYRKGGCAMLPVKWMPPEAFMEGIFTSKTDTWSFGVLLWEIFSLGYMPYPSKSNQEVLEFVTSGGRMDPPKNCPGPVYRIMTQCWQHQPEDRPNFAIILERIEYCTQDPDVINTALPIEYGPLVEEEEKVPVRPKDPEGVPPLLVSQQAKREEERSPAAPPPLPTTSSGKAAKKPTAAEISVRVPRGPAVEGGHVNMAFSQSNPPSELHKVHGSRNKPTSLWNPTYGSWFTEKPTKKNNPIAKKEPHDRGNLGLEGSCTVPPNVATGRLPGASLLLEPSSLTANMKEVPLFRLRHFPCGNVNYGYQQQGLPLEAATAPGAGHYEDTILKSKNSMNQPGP
baculovirus-expressed ALK, sequence (Q9UM73 19-1620): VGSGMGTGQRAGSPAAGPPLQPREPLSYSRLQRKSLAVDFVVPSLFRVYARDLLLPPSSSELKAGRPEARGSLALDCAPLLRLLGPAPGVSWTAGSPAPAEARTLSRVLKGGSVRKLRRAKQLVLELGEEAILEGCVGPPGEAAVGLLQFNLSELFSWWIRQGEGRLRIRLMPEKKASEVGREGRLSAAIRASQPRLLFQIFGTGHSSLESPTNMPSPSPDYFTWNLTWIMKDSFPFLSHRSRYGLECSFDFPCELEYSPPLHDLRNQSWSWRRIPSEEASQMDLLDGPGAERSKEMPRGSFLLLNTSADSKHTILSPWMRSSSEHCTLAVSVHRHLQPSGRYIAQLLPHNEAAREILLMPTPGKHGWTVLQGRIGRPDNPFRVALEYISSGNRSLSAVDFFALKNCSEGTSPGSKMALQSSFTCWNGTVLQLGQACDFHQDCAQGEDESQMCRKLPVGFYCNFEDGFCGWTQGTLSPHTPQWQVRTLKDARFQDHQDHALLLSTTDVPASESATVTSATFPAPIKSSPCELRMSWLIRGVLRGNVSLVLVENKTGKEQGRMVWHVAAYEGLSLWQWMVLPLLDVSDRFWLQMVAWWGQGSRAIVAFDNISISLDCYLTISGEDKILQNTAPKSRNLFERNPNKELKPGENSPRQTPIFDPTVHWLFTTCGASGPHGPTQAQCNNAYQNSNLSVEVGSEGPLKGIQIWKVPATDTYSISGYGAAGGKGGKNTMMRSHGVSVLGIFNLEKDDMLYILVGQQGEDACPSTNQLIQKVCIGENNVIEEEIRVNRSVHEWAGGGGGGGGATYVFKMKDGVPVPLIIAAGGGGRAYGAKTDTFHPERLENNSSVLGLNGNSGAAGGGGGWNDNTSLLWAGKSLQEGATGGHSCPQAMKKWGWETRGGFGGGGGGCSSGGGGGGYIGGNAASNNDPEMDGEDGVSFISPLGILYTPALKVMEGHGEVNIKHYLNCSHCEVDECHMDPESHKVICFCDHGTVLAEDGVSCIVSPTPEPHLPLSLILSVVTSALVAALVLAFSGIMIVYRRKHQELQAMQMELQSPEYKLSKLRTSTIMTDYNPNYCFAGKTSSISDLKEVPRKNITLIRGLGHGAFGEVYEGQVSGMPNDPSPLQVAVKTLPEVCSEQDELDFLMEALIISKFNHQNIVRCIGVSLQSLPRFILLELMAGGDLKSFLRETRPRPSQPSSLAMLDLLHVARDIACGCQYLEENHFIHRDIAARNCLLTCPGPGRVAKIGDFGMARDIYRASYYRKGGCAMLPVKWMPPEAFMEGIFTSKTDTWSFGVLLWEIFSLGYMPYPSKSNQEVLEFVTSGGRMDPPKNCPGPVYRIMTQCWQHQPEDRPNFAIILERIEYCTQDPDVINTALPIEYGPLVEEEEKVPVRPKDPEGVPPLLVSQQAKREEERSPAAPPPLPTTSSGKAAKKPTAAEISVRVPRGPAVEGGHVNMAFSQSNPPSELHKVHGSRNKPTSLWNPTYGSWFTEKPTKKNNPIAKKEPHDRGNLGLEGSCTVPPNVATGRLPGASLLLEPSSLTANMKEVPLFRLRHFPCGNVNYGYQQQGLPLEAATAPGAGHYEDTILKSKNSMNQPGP
T1 sequence (P08581 956-1390 limits assumed): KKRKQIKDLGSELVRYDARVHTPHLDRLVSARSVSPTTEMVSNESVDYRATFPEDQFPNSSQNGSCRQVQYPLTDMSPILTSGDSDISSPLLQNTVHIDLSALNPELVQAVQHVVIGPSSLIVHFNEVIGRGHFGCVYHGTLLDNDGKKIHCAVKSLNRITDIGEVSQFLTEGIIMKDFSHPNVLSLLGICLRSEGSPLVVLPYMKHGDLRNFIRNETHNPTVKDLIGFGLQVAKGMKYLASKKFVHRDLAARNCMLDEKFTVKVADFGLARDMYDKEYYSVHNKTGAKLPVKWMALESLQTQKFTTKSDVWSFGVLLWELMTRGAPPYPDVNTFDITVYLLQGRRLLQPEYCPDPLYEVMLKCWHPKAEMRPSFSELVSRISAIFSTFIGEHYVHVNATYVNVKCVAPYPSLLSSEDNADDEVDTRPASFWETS

Consider `CC(c1cc(F)ccc1F)N1CCNc2ncc(-c3ccc(C(=O)N4CCC[C@H]4CN4CCCC4)cc3)cc21` (stereo partly drawn) [Example 154, S-(4-{1-[1-(2,5-Difluorophenyl)ethyl]-1,2,3,4-tetrahydropyrido[2,3-b]pyrazin-7-yl}phenyl)-{2-[(pyrrolidin-1-yl)methyl]pyrrolidin-1-yl}methanone], for which the results for the IC50 (in data set [1]; in data set [2]; at NPM-ALK) were 10000 to 100000 nM, under 100 nM and 251 to 500 nM, respectively.
Taken in the same sequence, the figures for `CN(C)CCCCNC(=O)c1cnc2c(c1)N(Cc1cc(Cl)ccc1C(F)(F)F)CCN2` [Example 295, 1-[5-Chloro-2-(trifluoromethyl)benzyl]-1,2,3,4-tetrahydropyrido[2,3-b]pyrazine-7-carboxylic acid [4-(dimethylamino)butyl]amide] were 1000 to 10000 nM, under 100 nM and 251 to 500 nM.
As for `O=C(NCCN1CCCC1)c1ccc(-c2cnc3c(c2)N(Cc2cc(F)ccc2F)C(=O)CN3)cc1` [Example 58, 4-[1-(2,5-Difluorobenzyl)-2-oxo-1,2,3,4-tetrahydropyrido[2,3-b]pyrazin-7-yl]-N-(2-pyrrolidin-1-yl-ethyl)benzamide], the melting point was 235 °C (dec.). Also, in data set [1], the concentration for half-maximal inhibition (IC50) lay within 10000 to 100000 nM. For the same molecule, in data set [2], the concentration for half-maximal inhibition (IC50) lay in the range of 100 to 1000 nM. In addition, the inhibition at 1 µM at NPM-ALK fell in the range of 0 to 25%.
In the case of `CN(C)CCCCNC(=O)c1ccc(-c2cnc3c(c2)N(Cc2c(Cl)cccc2Cl)C(=O)CN3)cc1` [Example 144, 4-[1-(2,6-Dichlorobenzyl)-2-oxo-1,2,3,4-tetrahydropyrido[2,3-b]pyrazin-7-yl]-N-(4-dimethylaminobutyl)benzamide, trifluoroacetic acid salt], the results for the 50% inhibitory concentration (IC50) in data set [1] and in data set [2] were 1000 to 10000 nM and 100 to 1000 nM, respectively. In addition, at NPM-ALK, the inhibition at 1 µM is 0 to 25%.
For `FC(F)(F)c1ccc(Cl)cc1CN1CCNc2ncc(-c3cn[nH]c3)cc21` [Example 200, 1-[5-Chloro-2-(trifluoromethyl)benzyl]-7-(1H-pyrazol-4-yl)-1,2,3,4-tetrahydro-pyrido[2,3-b]pyrazine], the melting point amounted to 271 °C. In addition, the 50% inhibitory concentration (IC50) in data set [1] was 1000 to 10000 nM. In data set [2], the half-inhibitory concentration (IC50) is 100 to 1000 nM. The 50% inhibitory concentration (IC50) against NPM-ALK was 751 to 1000 nM.
With `CN1CCN(c2ncc(-c3cnc4c(c3)N(Cc3c(F)ccc(F)c3Cl)CCN4)cn2)CC1` [Example 106, 1-(2-Chloro-3,6-difluorobenzyl)-7-[2-(4-methylpiperazin-1-yl)-pyrimidin-5-yl]-1,2,3,4-tetrahydropyrido[2,3-b]pyrazine], the melting point was in the range of 194 to 195 °C. Besides, in data set [1], the IC50 lay within 1000 to 10000 nM. Besides, in data set [2], the IC50 was under 100 nM. The IC50 against NPM-ALK is at most 250 nM.
Take `O=C1CNc2ncc(-c3ccc(C(=O)N4CCC[C@H]4CN4CCCC4)cc3)cc2N1Cc1c(Cl)cccc1Cl` [Example 141, S-1-(2,6-Dichlorobenzyl)-7-[4-((2-pyrrolidin-1-yl)methylpyrrolidine-1-carbonyl)phenyl]-3,4-dihydro-1H-pyrido[2,3-b]pyrazin-2-one]: the melting point is 188 °C. Also, the IC50 in data set [1] lay within 1000 to 10000 nM. In addition, the IC50 in data set [2] was 100 to 1000 nM. The inhibition at 1 µM on NPM-ALK was in the range of 51 to 75%.
`O=C(c1ccc(-c2cnc3c(c2)N(Cc2cc(F)ccc2F)CCN3)cc1)N1CCC[C@H]1CN1CCCC1` [Example 65, {4-[1-(2,5-Difluorobenzyl)-1,2,3,4-tetrahydropyrido[2,3-b]pyrazin-7-yl]phenyl}-((S)-2-((pyrrolidin-1-yl)methyl)pyrrolidin-1-yl)methanone] yielded a melting point of 143 to 144 °C. Moreover, the IC50 in data set [1] is 1000 to 10000 nM. Also, the IC50 in data set [2] is under 100 nM. Also, the concentration for half-maximal inhibition (IC50) on NPM-ALK was at most 250 nM.
As for `Fc1ccc(F)c(CN2CCNc3ncc(-c4ccc(N5CCOCC5)nc4)cc32)c1Cl` [Example 105, 1-(2-Chloro-3,6-difluorobenzyl)-7-(6-morpholin-4-yl-pyridin-3-yl)-1,2,3,4-tetrahydropyrido[2,3-b]pyrazine], the values for the half-inhibitory concentration (IC50) (in data set [1]; in data set [2]; at NPM-ALK) were 1000 to 10000 nM, under 100 nM and 751 to 1000 nM, respectively.
Take `O=C1CNc2ncc(-c3ccc(C(=O)N4CCC[C@H]4CN4CCCC4)cc3)cc2N1Cc1cc(F)ccc1F` [Example 57, 1-(2,5-Difluorobenzyl)-7-[4-((S)-2-[(pyrrolidin-1-yl)methyl]pyrrolidine-1-carbonyl)phenyl]-3,4-dihydro-1H-pyrido[2,3-b]pyrazin-2-one]: the melting point came to 125 °C. In data set [1], the concentration for half-maximal inhibition (IC50) lay within 100 to 1000 nM. For the same molecule, the concentration for half-maximal inhibition (IC50) in data set [2] lay within 100 to 1000 nM. Moreover, the inhibition at 1 µM at NPM-ALK was 0 to 25%.
Turning to `CC(=O)N1CCN(c2cc(-c3cnc4c(c3)N(Cc3cc(Cl)ccc3C(F)(F)F)CCN4)ccn2)CC1` [Example 199, 1-[4-(4-{1-[5-Chloro-2-(trifluoromethyl)benzyl]-1,2,3,4-tetrahydro-pyrido[2,3-b]pyrazin-7-yl}pyridin-2-yl)piperazin-1-yl]ethanone], the melting point stood at 241 °C. Moreover, the half-inhibitory concentration (IC50) in data set [1] lay in the range of 1000 to 10000 nM. In data set [2], the concentration for half-maximal inhibition (IC50) was under 100 nM. Also, on NPM-ALK, the IC50 is at most 250 nM.
Regarding `COC1CCN(C(=O)c2ccc(-c3cnc4c(c3)N(Cc3cc(Cl)ccc3C(F)(F)F)CCN4)cc2)CC1` [Example 205], the IC50 in data set [1] is 1000 to 10000 nM; in data set [2], under 100 nM; on NPM-ALK, 251 to 500 nM.
In the case of `CN1CCN(C(=O)c2ccc(-c3cnc4c(c3)N(Cc3cc(Cl)ccc3Cl)CCN4)cc2)CC1` [Example 132, {4-[1-(2,5-Dichlorobenzyl)-1,2,3,4-tetrahydropyrido[2,3-b]pyrazin-7-yl]phenyl}-(4-methylpiperazin-1-yl)methanone], the IC50 in data set [1] is 1000 to 10000 nM; in data set [2], under 100 nM; against NPM-ALK it was 251 to 500 nM.
In turn, `O=C1CNc2ncc(-c3ccc(NS(=O)(=O)CCN4CCCC4)cc3)cc2N1Cc1cc(F)ccc1F` [Example 48, 2-Pyrrolidin-1-yl-ethanesulfonic acid{4-[1-(2,5-difluorobenzyl)-2-oxo-1,2,3,4-tetrahydropyrido[2,3-b]pyrazin-7-yl]phenyl}-amide] came in with a melting point of over 300 °C. Moreover, the IC50 in data set [1] lay in the range of 1000 to 10000 nM. Moreover, the IC50 in data set [2] lay within 100 to 1000 nM. For the same molecule, at NPM-ALK, the inhibition at 1 µM lay in the range of 26 to 50%.
On to `Fc1ccc(F)c(CN2CCNc3ncc(-c4cccc(N5CCOCC5)c4)cc32)c1Cl` [Example 189, 1-(2-Chloro-3,6-difluorobenzyl)-7-(3-morpholin-4-yl-phenyl)-1,2,3,4-tetrahydropyrido[2,3-b]pyrazine], for which the 50% inhibitory concentration (IC50) in data set [1] is 100 to 1000 nM; in data set [2], under 100 nM; against NPM-ALK, at most 250 nM.
For `O=C(c1ccc(-c2cnc3c(c2)N(Cc2ccccc2)CCN3)cc1)N1CCC[C@H]1CN1CCCC1` [Example 38, [4-(1-Benzyl-1,2,3,4-tetrahydropyrido[2,3-b]pyrazin-7-yl)phenyl]-((S)-2-pyrrolidinylmethylpyrrolidin-1-yl)methanone, trifluoroacetic acid salt], in that order: 100 to 1000 nM, 100 to 1000 nM and 501 to 750 nM.
With `O=S(=O)(CCN1CCCC1)Nc1ccc(-c2cnc3c(c2)N(Cc2cc(F)ccc2F)CCN3)cc1` [Example 51, 2-Pyrrolidin-1-yl-ethanesulfonic acid{4-[1-(2,5-difluorobenzyl)-1,2,3,4-tetrahydropyrido[2,3-b]pyrazin-7-yl]phenyl}-amide], the IC50 in data set [1] lay within 10000 to 100000 nM; in data set [2], 100 to 1000 nM. The inhibition at 1 µM at NPM-ALK fell in the range of 26 to 50%.
With `CN1CCN(c2ccc(-c3cnc4c(c3)N(Cc3cc(Cl)ccc3Cl)CCN4)cn2)CC1` [Example 180, 1-(2,5-Dichlorobenzyl)-7-[6-(4-methylpiperazin-1-yl)pyridin-3-yl]-1,2,3,4-tetrahydropyrido[2,3-b]pyrazine], the concentration for half-maximal inhibition (IC50) in data set [1] was 1000 to 10000 nM; in data set [2], under 100 nM; at NPM-ALK it was 251 to 500 nM.
